pEC50: −log10 of the molar value. Where “and” joins values, the source holds several entries; their conditions need not be identical. Identical values can stand only once. Starred links: 1 amine or outer side, 2 acyl side, 3 side chain; linkers in the order of their positions; H or OH if unused. Non-standard residues stand in square brackets, D forms with d. Residues, ends and D or L forms follow the SMILES beside them. Groups on a side chain read outwards from the residue. *: point of attachment. C20 diacid = O=C(O)CCCCCCCCCCCCCCCCCCC(=O)*; C18 diacid = O=C(O)CCCCCCCCCCCCCCCCC(=O)*; γGlu = O=C(O)[C@H](CCC(=O)[*:2])N[*:1]; αMeF = C[C@](N)(Cc1ccccc1)C(=O)O; AEEA = NCCOCCOCC(=O)O; Aib = CC(C)(N)C(=O)O
Assays:
[1] = molecular target: human glucagon receptor (hGCGR) (Homo sapiens, UniProt P47871); test: cAMP production (HTRF) in CHO cells expressing hGCGR; type: cell-based; set-up: expressed in transfected cells; conditions: Table 6, peptides modified at position 17; cAMP in CHO hGCGR cells; geometric mean; read-out: hGluc-R EC50
Method in brief: (§1)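 Read-out: HTRF cAMP (anti-cAMP cryptate donor, cAMP-d2 acceptor in conjugate/lysis buffer), converted to % Delta F and fitted by 4-parameter logistic for EC50. Cell densities were 1×10^5 cells/mL (hGLP-1R) or 2×10^5 cells/mL (hGCGR). Stimulation lasted 30 min at room temperature.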

[2] = molecular target: human GLP-1 receptor (hGLP-1R) (Homo sapiens, UniProt P43220); test: cAMP production (HTRF) in CHO cells expressing hGLP-1R; type: cell-based; set-up: expressed in transfected cells; conditions: for pEC50: Table 6, peptides modified at position 17, cAMP in CHO hGLP-1R cells, geometric mean, read-out: hGLP-1R EC50; for % Relative Potency Ratio: Table 6, % GLP-1R activity relative to GLP-1 / % GlucR activity relative to glucagon
Method in brief: as §1

human glucagon receptor (hGCGR), sequence (P47871 26-477): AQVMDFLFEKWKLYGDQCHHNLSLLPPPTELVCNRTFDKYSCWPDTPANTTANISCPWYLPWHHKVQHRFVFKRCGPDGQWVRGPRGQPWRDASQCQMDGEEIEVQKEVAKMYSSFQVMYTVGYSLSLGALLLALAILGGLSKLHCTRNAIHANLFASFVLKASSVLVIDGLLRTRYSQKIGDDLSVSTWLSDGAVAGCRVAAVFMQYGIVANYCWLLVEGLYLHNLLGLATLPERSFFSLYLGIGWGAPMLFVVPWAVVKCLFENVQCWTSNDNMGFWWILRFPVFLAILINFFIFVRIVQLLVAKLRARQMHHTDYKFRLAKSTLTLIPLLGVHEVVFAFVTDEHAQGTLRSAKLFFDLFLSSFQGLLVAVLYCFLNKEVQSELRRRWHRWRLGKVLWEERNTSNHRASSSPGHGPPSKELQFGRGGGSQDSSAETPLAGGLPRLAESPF
human GLP-1 receptor (hGLP-1R), sequence (P43220 24-463): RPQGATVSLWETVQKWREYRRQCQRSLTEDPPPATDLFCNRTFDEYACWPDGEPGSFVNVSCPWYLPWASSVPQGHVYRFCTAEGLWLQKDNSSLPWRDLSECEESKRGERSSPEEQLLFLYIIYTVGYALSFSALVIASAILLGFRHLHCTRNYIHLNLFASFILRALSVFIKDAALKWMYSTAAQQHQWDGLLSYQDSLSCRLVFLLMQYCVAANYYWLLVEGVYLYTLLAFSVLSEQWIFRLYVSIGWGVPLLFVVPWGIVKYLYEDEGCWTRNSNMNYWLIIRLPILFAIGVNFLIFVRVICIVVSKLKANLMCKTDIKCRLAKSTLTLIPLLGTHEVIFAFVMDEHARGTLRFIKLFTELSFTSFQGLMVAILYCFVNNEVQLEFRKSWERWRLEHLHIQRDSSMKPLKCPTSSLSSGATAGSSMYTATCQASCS

Row | Structure (SMILES) | pEC50 [1] | pEC50 [2] | % Relative Potency Ratio [2]
1 | CC(C)C[C@H](NC(=O)[C@H](Cc1c[nH]c2ccccc12)NC(=O)[C@H](CCCNC(=N)N)NC(=O)[C@@H](NC(=O)[C@H](Cc1ccccc1)NC(=O)[C@H](CC(=O)O)NC(=O)[C@H](CCC(N)=O)NC(=O)[C@H](C)NC(=O)[C@H](CCCNC(=N)N)NC(=O)[C@H](CCCCNC(=O)COCCOCCNC(=O)COCCOCCNC(=O)CC[C@H](NC(=O)CCCCCCCCCCCCCCCCCCC(=O)O)C(=O)O)NC(=O)[C@H](CO)NC(=O)[C@H](CC(=O)O)NC(=O)[C@H](CC(C)C)NC(=O)[C@](C)(Cc1ccccc1)NC(=O)[C@H](CCCCN)NC(=O)[C@H](CO)NC(=O)[C@@H](NC(=O)[C@H](CC(=O)O)NC(=O)[C@H](CO)NC(=O)[C@@H](NC(=O)[C@H](Cc1ccccc1)NC(=O)[C@@H](NC(=O)CNC(=O)[C@H](CCC(N)=O)NC(=O)C(C)(C)NC(=O)[C@@H](N)Cc1c[nH]cn1)[C@@H](C)O)[C@@H](C)O)C(C)C)C(C)C)C(=O)N[C@@H](CC(C)C)C(=O)NC(C)(C)C(=O)N[C@@H](CCC(=O)O)C(=O)O [Peptide 153] (H-H[Aib]QGTFTSDVSK[αMeF]LDSK([AEEA-AEEA-γGlu-C20 diacid])RAQDFVRWLL[Aib]E-OH; N-terminus assumed) | 10.00 | 10.39 | 4.8
2 | CC(C)C[C@H](NC(=O)[C@H](Cc1c[nH]c2ccccc12)NC(=O)[C@H](CCCNC(=N)N)NC(=O)[C@@H](NC(=O)[C@H](Cc1ccccc1)NC(=O)[C@H](CC(=O)O)NC(=O)[C@H](CCC(N)=O)NC(=O)[C@H](C)NC(=O)[C@H](CCCNC(=N)N)NC(=O)[C@H](CCCCNC(=O)COCCOCCNC(=O)COCCOCCNC(=O)CC[C@H](NC(=O)CCCCCCCCCCCCCCCCCCC(=O)O)C(=O)O)NC(=O)[C@H](CO)NC(=O)[C@H](CC(=O)O)NC(=O)[C@H](CC(C)C)NC(=O)[C@](C)(Cc1ccccc1)NC(=O)[C@H](CCCCN)NC(=O)[C@H](CO)NC(=O)[C@@H](NC(=O)[C@H](CC(=O)O)NC(=O)[C@H](CO)NC(=O)[C@@H](NC(=O)[C@H](Cc1ccccc1)NC(=O)[C@@H](NC(=O)CNC(=O)[C@H](CCC(N)=O)NC(=O)C(C)(C)NC(=O)[C@@H](N)Cc1c[nH]cn1)[C@@H](C)O)[C@@H](C)O)C(C)C)C(C)C)C(=O)N[C@@H](CC(C)C)C(=O)N[C@@H](CCC(=O)O)C(=O)NC(C)(C)C(=O)NCC(=O)O [Peptide 158] (H-H[Aib]QGTFTSDVSK[αMeF]LDSK([AEEA-AEEA-γGlu-C20 diacid])RAQDFVRWLLE[Aib]G-OH; N-terminus assumed) | 9.48 | 9.52 | 2.2
3 | CC(C)C[C@H](NC(=O)[C@H](Cc1c[nH]c2ccccc12)NC(=O)[C@H](CCCNC(=N)N)NC(=O)[C@@H](NC(=O)[C@H](Cc1ccccc1)NC(=O)[C@H](CC(=O)O)NC(=O)[C@H](CCC(N)=O)NC(=O)[C@H](C)NC(=O)[C@H](CCCNC(=N)N)NC(=O)[C@H](CCCCNC(=O)COCCOCCNC(=O)COCCOCCNC(=O)CC[C@H](NC(=O)CCCCCCCCCCCCCCCCCCC(=O)O)C(=O)O)NC(=O)[C@@H](NC(=O)[C@H](CC(=O)O)NC(=O)[C@H](CC(C)C)NC(=O)[C@](C)(Cc1ccccc1)NC(=O)[C@H](CCCCN)NC(=O)[C@H](CO)NC(=O)[C@@H](NC(=O)[C@H](CC(=O)O)NC(=O)[C@H](CO)NC(=O)[C@@H](NC(=O)[C@H](Cc1ccccc1)NC(=O)[C@@H](NC(=O)CNC(=O)[C@H](CCC(N)=O)NC(=O)C(C)(C)NC(=O)[C@@H](N)Cc1c[nH]cn1)[C@@H](C)O)[C@@H](C)O)C(C)C)[C@@H](C)O)C(C)C)C(=O)N[C@@H](CC(C)C)C(=O)N[C@@H](CCC(=O)O)C(=O)NC(C)(C)C(=O)NCC(=O)O [Peptide 159] | 9.84 | 9.84 | 2.0
4 | CC(C)C[C@H](NC(=O)[C@H](Cc1c[nH]c2ccccc12)NC(=O)[C@H](CCCNC(=N)N)NC(=O)[C@@H](NC(=O)[C@H](Cc1ccccc1)NC(=O)[C@H](CC(=O)O)NC(=O)[C@H](CCC(N)=O)NC(=O)[C@H](C)NC(=O)[C@H](CCCNC(=N)N)NC(=O)[C@H](CCCCNC(=O)COCCOCCNC(=O)COCCOCCNC(=O)CC[C@H](NC(=O)CCCCCCCCCCCCCCCCC(=O)O)C(=O)O)NC(=O)[C@H](CO)NC(=O)[C@H](CCC(=O)O)NC(=O)[C@H](CC(C)C)NC(=O)[C@](C)(Cc1ccccc1)NC(=O)[C@H](CCCCN)NC(=O)[C@H](CO)NC(=O)[C@@H](NC(=O)[C@H](CC(=O)O)NC(=O)[C@H](CO)NC(=O)[C@@H](NC(=O)[C@H](Cc1ccccc1)NC(=O)[C@@H](NC(=O)CNC(=O)[C@H](CCC(N)=O)NC(=O)C(C)(C)NC(=O)[C@@H](N)Cc1c[nH]cn1)[C@@H](C)O)[C@@H](C)O)C(C)C)C(C)C)C(=O)N[C@@H](CC(C)C)C(=O)N[C@@H](CCC(=O)O)C(=O)NC(C)(C)C(=O)NCC(=O)O [Peptide 160] (H-H[Aib]QGTFTSDVSK[αMeF]LESK([AEEA-AEEA-γGlu-C18 diacid])RAQDFVRWLLE[Aib]G-OH) | 9.38 | 10.26 | 14.9
5 | CC(C)C[C@H](NC(=O)[C@H](Cc1c[nH]c2ccccc12)NC(=O)[C@H](C)NC(=O)[C@@H](NC(=O)[C@H](Cc1ccccc1)NC(=O)[C@H](CC(=O)O)NC(=O)[C@H](CCCNC(=N)N)NC(=O)[C@H](C)NC(=O)[C@H](CCCNC(=N)N)NC(=O)[C@H](CCCCNC(=O)COCCOCCNC(=O)COCCOCCNC(=O)CC[C@H](NC(=O)CCCCCCCCCCCCCCCCC(=O)O)C(=O)O)NC(=O)[C@H](C)NC(=O)[C@H](CCC(=O)O)NC(=O)[C@H](CC(C)C)NC(=O)[C@](C)(Cc1ccccc1)NC(=O)[C@H](CCCCN)NC(=O)[C@H](CO)NC(=O)[C@@H](NC(=O)[C@H](CC(=O)O)NC(=O)[C@H](CO)NC(=O)[C@@H](NC(=O)[C@H](Cc1ccccc1)NC(=O)[C@@H](NC(=O)CNC(=O)[C@H](CCC(N)=O)NC(=O)C(C)(C)NC(=O)[C@@H](N)Cc1c[nH]cn1)[C@@H](C)O)[C@@H](C)O)C(C)C)C(C)C)C(=O)N[C@@H](CC(C)C)C(=O)N[C@@H](CCC(=O)O)C(=O)NC(C)(C)C(=O)NCC(=O)O [Peptide 161] (H-H[Aib]QGTFTSDVSK[αMeF]LEAK([AEEA-AEEA-γGlu-C18 diacid])RARDFVAWLLE[Aib]G-OH) | 9.73 and 8.99 | 10.76 and 10.29 | 21.6 and 40.0
6 | CC[C@H](C)[C@H](NC(=O)[C@H](Cc1c[nH]c2ccccc12)NC(=O)[C@H](CCCNC(=N)N)NC(=O)[C@@H](NC(=O)[C@H](Cc1ccccc1)NC(=O)[C@H](CC(=O)O)NC(=O)[C@H](CCC(N)=O)NC(=O)[C@H](C)NC(=O)[C@H](CCCNC(=N)N)NC(=O)[C@H](CCCCNC(=O)COCCOCCNC(=O)COCCOCCNC(=O)CC[C@H](NC(=O)CCCCCCCCCCCCCCCCC(=O)O)C(=O)O)NC(=O)[C@H](CO)NC(=O)[C@H](CC(=O)O)NC(=O)[C@H](CC(C)C)NC(=O)[C@](C)(Cc1ccccc1)NC(=O)[C@H](CCCCN)NC(=O)[C@H](CO)NC(=O)[C@@H](NC(=O)[C@H](CC(=O)O)NC(=O)[C@H](CO)NC(=O)[C@@H](NC(=O)[C@H](Cc1ccccc1)NC(=O)[C@@H](NC(=O)CNC(=O)[C@H](CCC(N)=O)NC(=O)C(C)(C)NC(=O)[C@@H](N)Cc1c[nH]cn1)[C@@H](C)O)[C@@H](C)O)C(C)C)C(C)C)C(=O)N[C@@H](C)C(=O)NC(C)(C)C(=O)N[C@H](C(=O)N[C@@H](CCC(=O)O)C(=O)O)[C@@H](C)O [Peptide 162] (H-H[Aib]QGTFTSDVSK[αMeF]LDSK([AEEA-AEEA-γGlu-C18 diacid])RAQDFVRWIA[Aib]TE-OH; N-terminus assumed) | 8.99 | 10.22 | 34.1
7 | CC(C)C[C@H](NC(=O)[C@H](Cc1c[nH]c2ccccc12)NC(=O)[C@H](CCCNC(=N)N)NC(=O)[C@@H](NC(=O)[C@H](Cc1ccccc1)NC(=O)[C@H](CC(=O)O)NC(=O)[C@H](CCC(N)=O)NC(=O)[C@H](C)NC(=O)[C@H](CCCNC(=N)N)NC(=O)[C@H](CCCCNC(=O)COCCOCCNC(=O)COCCOCCNC(=O)CC[C@H](NC(=O)CCCCCCCCCCCCCCCCC(=O)O)C(=O)O)NC(=O)[C@H](CO)NC(=O)[C@H](CC(=O)O)NC(=O)[C@H](CC(C)C)NC(=O)[C@](C)(Cc1ccccc1)NC(=O)[C@H](CCCCN)NC(=O)[C@H](CO)NC(=O)[C@@H](NC(=O)[C@H](CC(=O)O)NC(=O)[C@H](CO)NC(=O)[C@@H](NC(=O)[C@H](Cc1ccccc1)NC(=O)[C@@H](NC(=O)CNC(=O)[C@H](CCC(N)=O)NC(=O)C(C)(C)NC(=O)[C@@H](N)Cc1c[nH]cn1)[C@@H](C)O)[C@@H](C)O)C(C)C)C(C)C)C(=O)N[C@@H](CC(C)C)C(=O)N[C@@H](CCC(=O)O)C(=O)NC(C)(C)C(=O)N[C@@H](C)C(=O)O [Peptide 163] (H-H[Aib]QGTFTSDVSK[αMeF]LDSK([AEEA-AEEA-γGlu-C18 diacid])RAQDFVRWLLE[Aib]A-OH; N-terminus assumed) | 9.84 | 10.05 | 3.2
